Measured values published in ChEMBL document CHEMBL2203001, “Flavonoid glycosides from the leaves of Allium victorialis var. platyphyllum and their anti-neuroinflammatory effects” (Bioorg Med Chem Lett, 2012).

Legend:
[1] = Cytotoxicity against mouse BV2 cells assessed as cell viability at 20 uM by MTT assay relative to LPS-treated cells; format: cell-based, BV-2; conditions: read-out: Activity
[2] = test system: BV-2; assay: Antineuroinflammatory activity against mouse BV2 cells assessed as inhibition of LPS-induced nitric oxide production after 24 hrs by Griess method; format: functional, cell-based; conditions: BV-2, 24 h

| Structure (SMILES) | viability at 20 µM [1] [%] | IC50 [2] [µM] |
| --- | --- | --- |
| O=c1c(O[C@@H]2O[C@H](CO)[C@@H](O)[C@H](O)[C@H]2O)c(-c2ccc(O[C@@H]3O[C@H](CO)[C@@H](O)[C@H](O)[C@H]3O)c(O)c2)oc2cc(O)cc(O)c12 | 100 | 45.5 |
| COc1cc(/C=C/C(=O)O[C@H]2[C@H](Oc3cc(O)c4c(=O)c(O[C@@H]5O[C@H](CO)[C@@H](O)[C@H](O)[C@H]5O)c(-c5ccc(O)cc5)oc4c3)O[C@H](CO)[C@@H](O)[C@@H]2O)ccc1O | 106 | 21.5 |
| O=c1c(O[C@@H]2O[C@H](CO)[C@@H](O)[C@H](O)[C@H]2O)c(-c2ccc(O[C@@H]3O[C@H](CO)[C@@H](O)[C@H](O)[C@H]3O)cc2)oc2cc(O[C@@H]3O[C@H](CO)[C@@H](O)[C@H](O)[C@H]3O)cc(O)c12 | 102 | 33 |
| COc1cc(/C=C/C(=O)O[C@H]2[C@H](Oc3c(-c4ccc(O[C@@H]5O[C@H](CO)[C@@H](O)[C@H](O)[C@H]5O)cc4)oc4cc(O[C@@H]5O[C@H](CO)[C@@H](O)[C@H](O)[C@H]5O)cc(O)c4c3=O)O[C@H](CO)[C@@H](O)[C@@H]2O)ccc1O | 101 | 43.4 |
| O=c1c(O[C@@H]2O[C@H](CO)[C@@H](O)[C@H](O)[C@H]2O)c(-c2ccc(O[C@@H]3O[C@H](CO)[C@@H](O)[C@H](O)[C@H]3O)cc2)oc2cc(O)cc(O)c12 | 99.1 | 170 |
| O=c1c(O[C@@H]2O[C@H](CO)[C@@H](O)[C@H](O)[C@H]2O)c(-c2ccc(O)cc2)oc2cc(O[C@@H]3O[C@H](CO)[C@@H](O)[C@H](O)[C@H]3O)cc(O)c12 | 106 | 28.9 |
| O=c1c(O)c(-c2ccc(O[C@@H]3O[C@H](CO)[C@@H](O)[C@H](O)[C@H]3O)c(O)c2)oc2cc(O[C@@H]3O[C@H](CO)[C@@H](O)[C@H](O)[C@H]3O)cc(O)c12 | 105 | 51.7 |
| O=C(/C=C/c1ccc(O)cc1)O[C@H]1[C@H](Oc2c(-c3ccc(O)cc3)oc3cc(O[C@@H]4O[C@H](CO)[C@@H](O)[C@H](O)[C@H]4O)cc(O)c3c2=O)O[C@H](CO)[C@@H](O)[C@@H]1O | 105 | 47.2 |
| O=c1c(O)c(-c2ccc(O)cc2)oc2cc(O[C@@H]3O[C@H](CO)[C@@H](O)[C@H](O)[C@H]3O)cc(O)c12 | 107 | 39.1 |
| O=C(/C=C/c1ccc(O)cc1)O[C@H]1[C@H](Oc2c(-c3ccc(O[C@@H]4O[C@H](CO)[C@@H](O)[C@H](O)[C@H]4O)cc3)oc3cc(O)cc(O)c3c2=O)O[C@H](CO)[C@@H](O)[C@@H]1O [ALLIVICTOSIDE A] | 109 | 55.6 |
| COc1cc(/C=C/C(=O)O[C@H]2[C@H](Oc3c(-c4ccc(O[C@@H]5O[C@H](CO)[C@@H](O)[C@H](O)[C@H]5O)cc4)oc4cc(O)cc(O)c4c3=O)O[C@H](CO)[C@@H](O)[C@@H]2O)ccc1O [ALLIVICTOSIDE B] | 107 | 20.7 |
| O=C(/C=C/c1ccc(O)cc1)O[C@H]1[C@H](Oc2c(-c3ccc(O[C@@H]4O[C@H](CO)[C@@H](O)[C@H](O)[C@H]4O)cc3)oc3cc(O[C@@H]4O[C@H](CO)[C@@H](O)[C@H](O)[C@H]4O)cc(O)c3c2=O)O[C@H](CO)[C@@H](O)[C@@H]1O [ALLIVICTOSIDE C] | 104 | 44 |
| O=C(/C=C\c1ccc(O)cc1)O[C@H]1[C@H](Oc2c(-c3ccc(O[C@@H]4O[C@H](CO)[C@@H](O)[C@H](O)[C@H]4O)cc3)oc3cc(O[C@@H]4O[C@H](CO)[C@@H](O)[C@H](O)[C@H]4O)cc(O)c3c2=O)O[C@H](CO)[C@@H](O)[C@@H]1O [ALLIVICTOSIDE D] | 100 | 48.5 |
| O=C(/C=C/c1ccc(O)cc1)O[C@@H]1[C@@H](O)[C@H](Oc2c(-c3ccc(O[C@@H]4O[C@H](CO)[C@@H](O)[C@H](O)[C@H]4O)cc3)oc3cc(O[C@@H]4O[C@H](CO)[C@@H](O)[C@H](O)[C@H]4O)cc(O)c3c2=O)O[C@H](CO)[C@H]1O [ALLIVICTOSIDE E] | 104 | 49.5 |
| COc1cc(/C=C/C(=O)O[C@H]2[C@H](Oc3c(-c4ccc(O)cc4)oc4cc(O[C@@H]5O[C@H](CO)[C@@H](O)[C@H](O)[C@H]5O)cc(O)c4c3=O)O[C@H](CO)[C@@H](O)[C@@H]2O)ccc1O [ALLIVICTOSIDE F] | 100 | 20.4 |
| O=C(/C=C/c1ccc(O)cc1)O[C@H]1[C@H](Oc2c(-c3ccc(O[C@H]4O[C@@H](CO)[C@H](O)[C@@H](O)[C@@H]4O)c(O)c3)oc3cc(O)cc(O)c3c2=O)O[C@H](CO)[C@@H](O)[C@@H]1O [ALLIVICTOSIDE G] | 101 | > 200 |
| COc1cc(/C=C/C(=O)O[C@H]2[C@H](Oc3c(-c4ccc(O[C@H]5O[C@@H](CO)[C@H](O)[C@@H](O)[C@@H]5O)c(O)c4)oc4cc(O[C@@H]5O[C@H](CO)[C@@H](O)[C@H](O)[C@H]5O)cc(O)c4c3=O)O[C@H](CO)[C@@H](O)[C@@H]2O)ccc1O [ALLIVICTOSIDE H] | 105 | 29.9 |
| O=c1c(O[C@@H]2O[C@H](CO)[C@@H](O)[C@H](O)[C@H]2O)c(-c2ccc(O)cc2)oc2cc(O)cc(O)c12 [ASTRAGALIN] | 106 | 77.4 |
| O=c1c(O[C@@H]2O[C@H](CO)[C@@H](O)[C@H](O)[C@H]2O)c(-c2ccc(O)c(O)c2)oc2cc(O)cc(O)c12 [ISOQUERCETIN] | 97.3 | 19.8 |
| C[C@@H]1O[C@@H](OC[C@H]2O[C@@H](Oc3c(-c4ccc(O)cc4)oc4cc(O)cc(O)c4c3=O)[C@H](O)[C@@H](O)[C@@H]2O)[C@H](O)[C@H](O)[C@H]1O [NICOTIFLOROSIDE] | 104 | 122 |
| CNC(=N)NCCC[C@H](N)C(=O)O [TILARGININE] | 98.2 | 16.3 |
